For series [1], the system named is soil-groundwater slurries. Description: Aerobic microcosm biodegradation of BTEX, isobutanol and ethanol. The procedure:
Soil and groundwater for laboratory microcosm testing were collected from within Site 60 at Vandenberg Air Force Base, CA. The site has a history of gasoline contamination, but has undergone an extensive cleanup program. Collected groundwater was containerized in sterile stainless steel soda kegs (18.5 L) under nitrogen headspace. […] The core samples in acetate sleeves were capped and sealed in the field to minimize exposure to air, shipped overnight on ice to the laboratory, and stored at 4° C.
Soil was removed from the acetate sleeves in an anaerobic chamber (Coy Laboratory Products, Inc., Grass Lake, Mich.) and the first 10 cm of the core ends that may have been exposed to oxygen were discarded. Collected soil consisted of silty sand with some gravel and larger stones. The soil was passed through a 0.95 cm sieve, homogenized, and then stored in amber glass jars with Teflon®-lined caps at 4° C. until microcosm setup was complete. (NA=Not Analyzed; * SVOC (semi volatile organic compound) detections include 0.008 mg L^−1 phenol and 0.003 mg L^−1 bis(2-ethylhexyl) phthalate; ** standard units).
Final transformation products were not determined. For comparison, one treatment was prepared using ethanol instead of isobutanol. […] Controls were amended with mercuric chloride and formaldehyde. BTEX and alcohol concentrations were selected to represent (approximately) potential groundwater concentrations that would be observed within a source area and in the near downgradient plume. The greater ethanol concentrations relative to the isobutanol concentrations used in this study were intended to reflect effective solubilities of isobutanol and ethanol in groundwater. […] The SET 1 treatments were prepared within 4 days of sample collection whereas SET 2 treatments were prepared after approximately 2 months of soil and groundwater storage.
Microcosms were prepared by placing 40 g of site soil into each of 54 glass serum bottles (approximate volume 160 mL each). BTEX and alcohol (isobutanol or ethanol) were added to the treatment bottles to attain the target concentrations shown in Tables 2A and B. Bottles were filled with groundwater so as to leave 10 mL of headspace. Controls were amended with mercuric chloride (700 mg/L in bottles) to inhibit microbial activity. Controls were subsequently amended with formaldehyde (1% v/v in bottles) after 4 days to limit microbial activity. Treatments were prepared with a minimum of 3 and up to 8 replicates each.
The prepared microcosms were incubated at 15° C. on a rotary shaker operating at 100 rpm. Headspace in each of the bottles was monitored for BTEX and oxygen. Aqueous BTEX concentrations were calculated by applying Henry's Law. Samples of the aqueous phase were analyzed for isobutanol and ethanol, as well as potential isobutanol degradation products (iso-butylaldehyde and iso-butyric acid). The headspace of each bottle was periodically flushed with oxygen gas to maintain aerobic conditions in the bottles. The headspace of each control bottle also was flushed with oxygen to evaluate potential losses of BTEX due to the flushing process.
Headspace gases were analyzed for BTEX by using a Varian CP-3900 gas chromatograph equipped with an FID and a Restek QSPLOT column (30 m length, 0.32 mm diameter) with an injector temperature of 260° C. and a detector temperature of 290° C. Headspace oxygen was analyzed by using a Varian CP-3800 gas chromatograph equipped with a Pulsed Discharge Helium Ionization Detector (PDHID) and both a CP-Molsiene 5A column and a CP-ParaBond Q column (both 10 m length, 0.32 mm diameter), an injector temperature of 210° C., and a detector temperature of 240° C. […] Aqueous alcohol concentrations (as well as iso-butylaldehyde and iso-butyric acid) were measured by first collecting a 130 μL subsample preserved with mercuric chloride.

Series [2] can be described thus: Water tolerance and phase separation tests on isobutanol-ethanol-gasoline blends. To be noted: E10 gasoline. It counts as physicochemical. The protocol:
Scoping water tolerance and phase separation tests were conducted on isobutanol-ethanol-gasoline blends at 65° F. […] Concentrations in both the hydrocarbon and aqueous phase were determined by GC.

[3] abbreviates: Treatment 1 (Low BTEX), aerobic, 15° C.
The mark [4] stands for this setting: Treatment 2 (High BTEX), aerobic.
[5] abbreviates: Treatment 3 (Low BTEX + IBA 68 μM), aerobic.
[6] abbreviates: Treatment 4 (High BTEX + IBA 3,400 μM), SET 1, aerobic.
The mark [7] stands for this setting: Treatment 5 (High BTEX + IBA 3,400 μM), SET 2, aerobic.
[8] abbreviates: Treatment 6 (High BTEX + Ethanol 11,000 μM), aerobic.
[9] abbreviates: higher concentration treatments, aerobic (isobutanol: data of Treatments 4 and 5; ethanol treatment).

In the case of `c1ccccc1` [Benzene, benzene], the Lag in series [1] (setting [3]) is reported as 0 days; in series [1] (setting [4]) it was 6 days; in series [1] (setting [5]), 0 days; in series [1] (setting [6]), 1 days; in series [1] (setting [7]) it was 1 days; in series [1] (setting [8]), 1 days.

`CCc1ccccc1` [Ethylbenzene, ethylbenzene]: the Lag in series [1] (setting [3]) amounted to 2 days; in series [1] (setting [4]), 5 days; in series [1] (setting [5]) it was 1 days; in series [1] (setting [6]), 0 days; in series [1] (setting [7]), 1 days; in series [1] (setting [8]), 1 days.

Turning to `Cc1ccccc1` [Toluene, toluene], the Lag turned out to be 0 days in series [1] (setting [3]); 5 days in series [1] (setting [4]); 0 days in series [1] (setting [5]); 5 days in series [1] (setting [6]); 1 days in series [1] (setting [7]); 1 days in series [1] (setting [8]).

On to `CCO` [ethanol, reference compound], for which the “observed first-order biodegradation rate constant” value in series [1] (setting [9]) was 0.074 ± 0.0023 day⁻¹.

With `CC(C)CO` [isobutanol], the “rate constant in lower concentration treatment relative to isobutanol or ethanol in higher concentration treatments” value in series [1] (Treatment 3 vs higher concentration treatments, aerobic) was “approximately 3.5 times”. Further, the “observed first-order biodegradation rate constant” value amounted to 0.081 ± 0.0044 day⁻¹ in series [1] (setting [9]) and 0.28 ± 0.054 day⁻¹ in series [1] (lower concentration treatment (Treatment 3), aerobic). Also, in series [2] (1.3% and 2.6% water, FIG. 11), the “effect of increased levels on aqueous phase volume during phase separation” value was “reduced aqueous phase volume”. Moreover, the “effect on amount of ethanol extracted into the aqueous phase” value in series [2] (FIG. 12) is given as “acts as a co-solvent for ethanol”.

With total xylenes, the Lag in series [1] (setting [3]) is 2 days; in series [1] (setting [4]), 0 days; in series [1] (setting [5]), 1 days; in series [1] (setting [6]) it was 0 days; in series [1] (setting [7]) it was 1 days; in series [1] (setting [8]), 1 days.

These data come from patent US20110283604A1, “BIODEGRADATION OF RENEWABLE HYDROCARBON FUEL BLENDS” (BUTAMAX(TM) ADVANCED BIOFUELS LLC, priority 2010, published 2011).
